Row | Structure (SMILES) | melting point
1 | O=C(O)c1ccc(N(CC2CCCCC2)c2nc(-c3ccc(OCc4ccc(C5CCCCC5)cc4)cc3)cs2)cc1 [Example 25, 4-(N-(4-(4-(4-cyclohexylbenzyloxy)phenyl)-2-thiazolyl)-N-cyclohexylmethylamino)benzoic acid] | 230 °C (dec.)
2 | CC(C)N(c1ccc(C(=O)[O-])cc1)c1nc(-c2ccc(OCc3ccc(C4CCCCC4)cc3)cc2)cs1.[Na+] [Example 34, sodium 4-(N-(4-(4-(4-cyclohexylbenzyloxy)phenyl)-2-thiazolyl)-N-isopropylamino)benzoate] | 230 °C (dec.)
3 | CC(C)N(c1ccc(C(=O)[O-])cc1)c1nc(-c2ccc(NC(=O)c3ccc(N4CCN(C)CC4)cc3)cc2)cs1.[Na+] [Example 37, sodium 4-(N-isopropyl-N-(4-(4-(4-(4-methyl-1-piperazinyl)benzoylamino)phenyl)-2-thiazolyl)amino)benzoate] | 230 °C (dec.)
4 | CC(C)N(c1ccc(C(=O)O)c(Cl)c1)c1nc(-c2ccc(NC(=O)c3ccc(N4CCN(C)CC4)cc3)cc2)cs1 [Example 41, 2-chloro-4-(N-isopropyl-N-(4-(4-(4-(4-methyl-1-piperazinyl)benzoylamino)phenyl)-2-thiazolyl)amino)benzoic acid] | 220 °C (dec.)
5 | CC(C)(c1ccc(C(=O)O)cc1)c1nc(-c2ccc(NC(=O)c3ccc(N4CCOCC4)cc3)cc2)cs1 [Example 44, 4-(1-methyl-1-(4-(4-(4-morpholinobenzoylamino)phenyl)-2-thiazolyl)ethyl)benzoic acid] | 290 °C (dec.)
6 | CC(C)N(c1ccc(C(=O)O)cc1)c1nc(-c2ccc(NC(=O)CCCC3CCCCC3)cc2)cs1 [Example 46, 4-(N-(4-(4-(4-cyclohexylbutyrylamino)phenyl)-2-thiazolyl)-N-isopropylamino)benzoic acid] | 230 °C (dec.)
7 | CC(C)(C)c1ccc(COc2ccc(-c3csc(Cc4ccc(C(=O)O)cc4)n3)cc2)cc1 [Example 47, 4-(4-(4-(4-tert-butylbenzyloxy)phenyl)-2-thiazolylmethyl)benzoic acid] | 223 to 228 °C
8 | O=C(O)c1ccc(COc2ccc(-c3csc(Cc4ccc(C(=O)O)cc4)n3)cc2)cc1 [Example 49, 4-(4-(4-(4-carboxybenzyloxy)phenyl)-2-thiazolylmethyl)benzoic acid] | 270 °C (dec.)
9 | CC(C)N(c1ccc(OCC(=O)O)cc1)c1nc(-c2ccc(NC(=O)C3CCCCC3)cc2)cs1 [Example 50, (4-(N-(4-(4-(cyclohexanecarbonylamino)phenyl)-2-thiazolyl)-N-isopropylamino)phenoxy)acetic acid] | 225 °C (dec.)
10 | CC(C)N(c1ccc(OCC(=O)O)cc1)c1nc(-c2ccc(NC(=O)c3ccc(N4CCCCC4)cc3)cc2)cs1 [Example 53, (4-(N-isopropyl-N-(4-(4-(4-piperidinobenzoylamino)phenyl)-2-thiazolyl)amino)phenoxy)acetic acid] | 220 °C (dec.)
11 | CC(C)N(c1ccc(OCC(=O)O)cc1)c1nc(-c2ccc(NC(=O)c3ccc(N4CCOCC4)cc3)cc2)cs1 [Example 54, (4-(N-isopropyl-N-(4-(4-(4-morpholinobenzoylamino)phenyl)-2-thiazolyl)amino)phenoxy)acetic acid] | 250 °C (dec.)
12 | CC(C)N(c1ccc(OCC(=O)O)cc1)c1nc(-c2ccc(NC(=O)c3cc(Cl)cc(Cl)c3)cc2)cs1 [Example 56, (4-(N-(4-(4-(3,5-dichlorobenzoylamino)phenyl)-2-thiazolyl)-N-isopropylamino)phenoxy)acetic acid] | 192 to 194 °C
13 | CC(C)N(c1ccc(OCC(=O)O)cc1)c1nc(-c2ccc(NC(=O)c3ccc(N4CCCCC4)nc3)cc2)cs1 [Example 57, (4-(N-isopropyl-N-(4-(4-(2-piperidino-5-pyridinecarbonylamino)phenyl)-2-thiazolyl)amino)phenoxy)acetic acid] | 237 to 240 °C
14 | CC(C)N(Cc1ccc(C(=O)O)cc1)c1nc(-c2ccc(NC(=O)c3ccc(N4CCOCC4)cc3)cc2)cs1 [Example 63, 4-((N-isopropyl-N-(4-(4-(4-morpholinobenzoylamino)phenyl)-2-thiazolyl)amino)methyl)benzoic acid] | 250 °C (dec.)
15 | CC(C)N(Cc1ccc(C(=O)O)cc1)c1nc(-c2ccc(NC(=O)c3ccc(-c4ccccc4)cc3)cc2)cs1 [Example 64, 4-((N-(4-(4-(4-biphenylcarbonylamino)phenyl)-2-thiazolyl)-N-isopropylamino)methyl)benzoic acid] | 250 °C (dec.)
16 | CC(C)N(Cc1ccc(C(=O)O)cc1)c1nc(-c2ccc(OCc3ccc(C4CCCCC4)cc3)cc2)cs1 [Example 65, 4-((N-(4-(4-(4-cyclohexylbenzyloxy)phenyl)-2-thiazolyl)-N-isopropylamino)methyl)benzoic acid] | 233 to 234 °C
17 | CC(C)Oc1ccc(C(=O)Nc2ccc(-c3csc(Cc4ccc(C(=O)O)cc4)n3)cc2)cc1 [Example 69, 4-(4-(4-(4-isopropoxybenzoylamino)phenyl)-2-thiazolylmethyl)benzoic acid] | 230 °C (dec.)
18 | O=C(O)c1ccc(Cc2nc(-c3ccc(NC(=O)c4ccc(-n5cccc5)cc4)cc3)cs2)cc1 [Example 70, 4-(4-(4-(4-(1-pyrrolyl)benzoylamino)phenyl)-2-thiazolylmethyl)benzoic acid] | 220 °C (dec.)

Results, then the molecule that gave them:

Row | melting point | Structure (SMILES)
19 | 238 to 240 °C | CC(C)N(c1ccc(C(=O)O)cc1)c1nc(-c2ccc(OCc3ccc(C4CCCCC4)cc3)cc2)cs1 [Example 24, 4-(N-(4-(4-(4-cyclohexylbenzyloxy)phenyl)-2-thiazolyl)-N-isopropylamino)benzoic acid]
20 | 230 °C (dec.) | O=C(O)CCCN(c1ccc(C(=O)O)cc1)c1nc(-c2ccc(OCc3ccc(C4CCCCC4)cc3)cc2)cs1 [Example 26, 4-(N-(3-carboxypropyl)-N-(4-(4-(4-cyclohexylbenzyloxy)phenyl)-2-thiazolyl)amino)benzoic acid]
21 | 230 °C (dec.) | O=C(O)c1cccc(Nc2nc(-c3ccc(NC(=O)c4ccc(C5CCCCC5)cc4)cc3)cs2)c1 [Example 27, 3-(4-(4-(4-cyclohexylbenzoylamino)phenyl)-2-thiazolylamino)benzoic acid]
22 | 230 °C (dec.) | CC(C)N(c1cccc(C(=O)O)c1)c1nc(-c2ccc(NC(=O)c3ccc(C4CCCCC4)cc3)cc2)cs1 [Example 28, 3-(N-(4-(4-(4-cyclohexylbenzoylamino)phenyl)-2-thiazolyl)-N-isopropylamino)benzoic acid]
23 | 220 °C (dec.) | CC(C)N(c1ccc(C(=O)O)c(Cl)c1)c1nc(-c2ccc(NC(=O)c3ccc(C4CCCCC4)cc3)cc2)cs1 [Example 38, 2-chloro-4-(N-(4-(4-(4-cyclohexylbenzoylamino)phenyl)-2-thiazolyl)-N-isopropylamino)benzoic acid]
24 | 219 to 221 °C | CC(C)(c1ccc(C(=O)O)cc1)c1nc(-c2ccc(OCc3ccc(C4CCCCC4)cc3)cc2)cs1 [Example 42, 4-(1-(4-(4-(4-cyclohexylbenzyloxy)phenyl)-2-thiazolyl)-1-methylethyl)benzoic acid]
25 | 262 to 264 °C | CC(C)(c1ccc(C(=O)O)cc1)c1nc(-c2ccc(NC(=O)c3ccc(C4CCCCC4)cc3)cc2)cs1 [Example 43, 4-(1-(4-(4-(4-cyclohexylbenzoylamino)phenyl)-2-thiazolyl)-1-methylethyl)benzoic acid]
26 | 268 to 271 °C | CC(C)(c1ccc(C(=O)O)cc1)c1nc(-c2ccc(NC(=O)c3ccc(N4CCCCC4)cc3)cc2)cs1 [Example 45, 4-(1-methyl-1-(4-(4-(4-piperidinobenzoylamino)phenyl)-2-thiazolyl)ethyl)benzoic acid]
27 | 235 to 238 °C | O=C(O)c1ccc(Cc2nc(-c3ccc(OCc4ccc(C5CCCCC5)cc4)cc3)cs2)cc1 [Example 48, 4-(4-(4-(4-cyclohexylbenzyloxy)phenyl)-2-thiazolylmethyl)benzoic acid]
28 | 240 °C (dec.) | CC(C)N(c1ccc(OCC(=O)O)cc1)c1nc(-c2ccc(NC(=O)c3ccc(C4CCCCC4)cc3)cc2)cs1 [Example 51, (4-(N-(4-(4-(4-cyclohexylbenzoylamino)phenyl)-2-thiazolyl)-N-isopropylamino)phenoxy)acetic acid]
29 | 153 to 157 °C | CC(C)N(c1nc(-c2ccc(NC(=O)c3ccc(C4CCCCC4)cc3)cc2)cs1)c1c(F)c(F)c(C(=O)O)c(F)c1F [Example 52, 4-(N-(4-(4-(4-cyclohexylbenzoylamino)phenyl)-2-thiazolyl)-N-isopropylamino)-2,3,5,6-tetrafluorobenzoic acid]
30 | 250 °C (dec.) | CC(C)N(Cc1ccc(C(=O)O)cc1)c1nc(-c2ccc(NC(=O)c3ccc(C4CCCCC4)cc3)cc2)cs1 [Example 61, 4-((N-(4-(4-(4-cyclohexylbenzoylamino)phenyl)-2-thiazolyl)-N-isopropylamino)methyl)benzoic acid]
31 | 234 °C (dec.) | CC(C)N(Cc1ccc(C(=O)O)cc1)c1nc(-c2ccc(NC(=O)c3ccc(N4CCCCC4)cc3)cc2)cs1 [Example 62, 4-((N-isopropyl-N-(4-(4-(4-piperidinobenzoylamino)phenyl)-2-thiazolyl)amino)methyl)benzoic acid]
32 | 230 °C (dec.) | O=C(O)c1ccc(Cc2nc(-c3ccc(NC(=O)c4ccc(C5CCCCC5)cc4)cc3)cs2)cc1 [Example 68, 4-(4-(4-(4-cyclohexylbenzoylamino)phenyl)-2-thiazolylmethyl)benzoic acid]
33 | 259 to 261 °C | O=C(O)c1ccc(C(=O)c2nc(-c3ccc(OCc4ccc(C5CCCCC5)cc4)cc3)cs2)cc1 [Example 71, 4-(4-(4-(4-cyclohexylbenzyloxy)phenyl)-2-thiazolecarbonyl)benzoic acid]
34 | 230 °C (dec.) | O=C(O)c1ccc(Nc2nc(-c3ccc(OCc4ccc(C5CCCCC5)cc4)cc3)cs2)c(OCCC2CCCCC2)c1 [Example 72, 4-(4-(4-(4-cyclohexylbenzyloxy)phenyl)-2-thiazolylamino)-3-(2-cyclohexylethoxy)benzoic acid]
35 | 230 °C (dec.) | O=C(O)c1ccc(Nc2nc(-c3ccc(OCc4ccc(C5CCCCC5)cc4)cc3)cs2)c(OCc2ccccc2)c1 [Example 73, 3-benzyloxy-4-(4-(4-(4-cyclohexylbenzyloxy)phenyl)-2-thiazolylamino)benzoic acid]
